Test results from PMC10424186 (Journal of Medicinal Chemistry, 2023).
Like-named read-outs stand apart in the source and are kept apart here.

Columns and labels:
human JMJD5 = human JMJD5 (Homo sapiens, UniProt Q8N371); assay: SPE-MS JMJD5 inhibition assay (hydroxylation of RPS6 128–148 peptide); format: biochemical
From the text: Synthetic peptides with sequences based on reported human 2OG oxygenase substrates were used in SPE-MS inhibition assays: RPS6, residues 128–148, for JMJD5;[42] HIF-α CODD, residues 558–574, for PHD2;[70] HIF-α CAD, residues 788–822, for FIH;[70] H3_1-15K9me3, histone 3 (H3), residues 1–15 with K9 of H3-bearing three methyl groups at the N^ε-position, K4 of H3 substituted by an alanine residue, and K14 of H3 by an isoleucine residue,[73] for KDM4E; and RPL27A, residues 31–49, for RIOX2 (Mina53).[44] All peptides were prepared as C-terminal amides by GL Biochem (Shanghai) Ltd. A synthetic thioether-linked cyclic peptide, hFX-CP101–119,[48] which was designed based on the reported cellular AspH substrate human coagulation factor X (hFX, residues 101–119; C101 was substituted for a D-alanine residue and C112 for a serine residue),[79] was used as AspH substrate; it was prepared with a C-terminal amide according to literature protocols.[80]
Cosubstrate/cofactor stock solutions [L-ascorbic acid/LAA: 50 mM in MQ-grade water; 2-oxoglutarate/2OG: 10 mM in MQ-grade water; ammonium iron(II) sulfate hexahydrate/FAS/(NH4)2Fe(SO4)2·6H2O: 400 mM in 20 mM HCl diluted to 1 mM in MQ-grade water] were freshly prepared from commercial solids (Sigma-Aldrich) on the day the assays were performed. The JMJD5,[42] PHD2,[70] FIH,[70] KDM4E,[72],[73] RIOX2,[44] and AspH[45] SPE-MS inhibition assays were performed as described in the cited literature, using isolated recombinant human enzymes (His6-thioredoxin-JMJD5,[42] His6-PHD2_181–426,[70] His6-FIH,[70] His6-KDM4E,[72],[73] His6-RIOX2_26–465,[87],[88] and His6-AspH315–758[48],[80]) and synthetic peptide substrates (RPS6_128–148 for JMJD5;[42] HIF-α CODD558–574 for PHD2;[70] HIF-α CAD788–822 for FIH;[70] H3_1–15K9me3 for KDM4E;[73] RPL27A31–49 for RIOX2;[44],[71] and hFX-CP101–119 for AspH;[45],[48] see above). For JMJD5, PHD2, FIH, RIOX2, and AspH, substrate hydroxylation was monitored (+16 Da mass shift), while for the KDM4E substrate, demethylation was monitored (−14 Da mass shift) by SPE-MS.

PHD2 = biological target: T1, PHD2 (Homo sapiens, UniProt Q9GZT9); assay: SPE-MS PHD2 inhibition assay (HIF-1α CODD hydroxylation); format: biochemical; conditions: Table 2; PHD2 181–426 […], 5.0 μM HIF-1α CODD; n = 2, mean ± SD
T1 construct: His6-PHD2_181–426; made in house; host or cells: Escherichia coli
T1 sequence (Q9GZT9 181-426): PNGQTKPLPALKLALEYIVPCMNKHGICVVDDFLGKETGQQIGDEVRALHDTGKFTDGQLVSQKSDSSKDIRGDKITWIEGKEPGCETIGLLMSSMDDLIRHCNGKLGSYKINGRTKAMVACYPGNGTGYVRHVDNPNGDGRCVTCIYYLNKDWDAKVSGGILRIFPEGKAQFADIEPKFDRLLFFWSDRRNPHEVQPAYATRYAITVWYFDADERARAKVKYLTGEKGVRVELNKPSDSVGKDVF
Method: (§1) H3_1-15K9me3, histone 3 (H3), residues 1–15 with K9 of H3-bearing three methyl groups at the N^ε-position, K4 of H3 substituted by an alanine residue, and K14 of H3 by an isoleucine residue,[73] for KDM4E; and RPL27A, residues 31–49, for RIOX2 (Mina53).[44]
(§2) Cosubstrate/cofactor stock solutions [L-ascorbic acid/LAA: 50 mM in MQ-grade water; 2-oxoglutarate/2OG: 10 mM in MQ-grade water; ammonium iron(II) sulfate hexahydrate/FAS/(NH4)2Fe(SO4)2·6H2O: 400 mM in 20 mM HCl diluted to 1 mM in MQ-grade water] were freshly prepared from commercial solids (Sigma-Aldrich) on the day the assays were performed. The JMJD5,[42] PHD2,[70] FIH,[70] KDM4E,[72],[73] RIOX2,[44] and AspH[45] […] For JMJD5, PHD2, FIH, RIOX2, and AspH, substrate hydroxylation was monitored (+16 Da mass shift), while for the KDM4E substrate, demethylation was monitored (−14 Da mass shift) by SPE-MS.

AspH = biological target: T2, AspH (Homo sapiens, UniProt Q12797); assay: SPE-MS AspH inhibition assay (hFX-CP101–119 hydroxylation); format: biochemical; conditions: Table 2; His6-AspH315–758 0.05 μM, 1.0 μM hFX-CP101–119; n = 2, mean ± SD
T2 construct: N-terminally His6-tagged AspH315–758; made in house; host or cells: Escherichia coli
T2 sequence (Q12797 315-758): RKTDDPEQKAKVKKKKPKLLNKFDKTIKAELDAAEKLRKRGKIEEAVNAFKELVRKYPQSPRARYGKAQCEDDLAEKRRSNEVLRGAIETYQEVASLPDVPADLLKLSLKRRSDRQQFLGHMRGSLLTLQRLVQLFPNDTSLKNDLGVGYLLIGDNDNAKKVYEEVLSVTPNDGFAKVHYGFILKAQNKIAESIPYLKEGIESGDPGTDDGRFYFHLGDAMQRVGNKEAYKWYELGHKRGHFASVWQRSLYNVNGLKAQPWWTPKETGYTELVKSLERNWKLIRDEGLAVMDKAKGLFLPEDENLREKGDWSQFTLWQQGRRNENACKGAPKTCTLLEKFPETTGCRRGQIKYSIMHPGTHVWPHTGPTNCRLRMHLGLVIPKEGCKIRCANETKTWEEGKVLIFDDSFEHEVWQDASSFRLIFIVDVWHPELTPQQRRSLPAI
Method: as §1, §2

KDM4E [1] = biological target: T3, KDM4E (Homo sapiens, UniProt B2RXH2); assay: SPE-MS KDM4E inhibition assay (demethylation of H3 1–15 K9me3); format: biochemical; conditions: Table 2, 10.0 μM H3 1–15 K9me3, n = 2, mean ± SD
T3 construct: made in house; host or cells: Escherichia coli
T3 sequence (B2RXH2 1-506): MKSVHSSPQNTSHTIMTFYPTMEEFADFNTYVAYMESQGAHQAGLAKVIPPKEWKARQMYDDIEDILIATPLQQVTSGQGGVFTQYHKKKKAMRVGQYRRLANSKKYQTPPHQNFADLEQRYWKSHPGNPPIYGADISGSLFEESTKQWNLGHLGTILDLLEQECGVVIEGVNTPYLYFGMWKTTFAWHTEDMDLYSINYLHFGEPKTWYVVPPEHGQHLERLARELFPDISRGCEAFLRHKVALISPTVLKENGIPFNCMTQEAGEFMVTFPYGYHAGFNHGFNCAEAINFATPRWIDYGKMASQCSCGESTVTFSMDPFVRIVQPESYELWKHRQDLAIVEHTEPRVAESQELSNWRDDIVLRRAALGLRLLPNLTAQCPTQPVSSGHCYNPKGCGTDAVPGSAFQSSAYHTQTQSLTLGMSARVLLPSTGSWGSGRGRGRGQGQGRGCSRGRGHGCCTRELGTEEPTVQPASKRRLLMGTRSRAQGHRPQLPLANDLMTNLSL
Method: as §1, §2

RIOX2 = biological target: T4, RIOX2 (Homo sapiens, UniProt Q8IUF8); assay: SPE-MS RIOX2 inhibition assay (RPL27A31–49 hydroxylation); format: biochemical; conditions: Table 2; His6-RIOX2 26–465 […], 5.0 μM RPL27A31–49; n = 2, mean ± SD
T4 construct: N-terminally His6-tagged RIOX2_26–465; made in house; host or cells: Escherichia coli
T4 sequence (Q8IUF8 26-465): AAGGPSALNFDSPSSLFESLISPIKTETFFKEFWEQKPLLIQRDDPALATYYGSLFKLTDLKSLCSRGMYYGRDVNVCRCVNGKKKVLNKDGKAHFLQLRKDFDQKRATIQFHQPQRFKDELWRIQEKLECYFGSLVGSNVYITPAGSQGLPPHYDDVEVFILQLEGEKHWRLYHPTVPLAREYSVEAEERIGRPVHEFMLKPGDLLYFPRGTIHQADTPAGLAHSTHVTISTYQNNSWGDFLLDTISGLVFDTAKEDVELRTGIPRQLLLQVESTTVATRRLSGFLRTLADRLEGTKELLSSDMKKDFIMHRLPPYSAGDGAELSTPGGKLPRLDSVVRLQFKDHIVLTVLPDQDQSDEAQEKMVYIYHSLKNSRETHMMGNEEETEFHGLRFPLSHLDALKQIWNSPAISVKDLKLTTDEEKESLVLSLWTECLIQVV
Method: Cosubstrate/cofactor stock solutions [L-ascorbic acid/LAA: 50 mM in MQ-grade water; 2-oxoglutarate/2OG: 10 mM in MQ-grade water; ammonium iron(II) sulfate hexahydrate/FAS/(NH4)2Fe(SO4)2·6H2O: 400 mM in 20 mM HCl diluted to 1 mM in MQ-grade water] were freshly prepared from commercial solids (Sigma-Aldrich) on the day the assays were performed. […] For JMJD5, PHD2, FIH, RIOX2, and AspH, substrate hydroxylation was monitored (+16 Da mass shift), while for the KDM4E substrate, demethylation was monitored (−14 Da mass shift) by SPE-MS.

KDM4E [2] = biological target: T3, KDM4E; conditions: Supporting Table S1; reported FDH-coupled spectrophotometric assay; ref SI 17; cited from earlier work
[3] = Table 2, JMJD5 […], 2OG 2.0 μM, Fe(II) 2.0 μM, LAA 100 μM, RPS6 128–148 2.0 μM, n = 3, mean ± SD, read-out: IC50 JMJD5
[4] = Supporting Table S1, JMJD5 […], 2OG 2.0 μM, RPS6 128-148 2.0 μM, pH 7.5, 20 °C, n = 3, mean ± SD, read-out: IC50 JMJD5
[5] = supplementary CSV, read-out: IC50 JMJD5

Sequence of human JMJD5 (Q8N371 whole entry, the tested form may be a part): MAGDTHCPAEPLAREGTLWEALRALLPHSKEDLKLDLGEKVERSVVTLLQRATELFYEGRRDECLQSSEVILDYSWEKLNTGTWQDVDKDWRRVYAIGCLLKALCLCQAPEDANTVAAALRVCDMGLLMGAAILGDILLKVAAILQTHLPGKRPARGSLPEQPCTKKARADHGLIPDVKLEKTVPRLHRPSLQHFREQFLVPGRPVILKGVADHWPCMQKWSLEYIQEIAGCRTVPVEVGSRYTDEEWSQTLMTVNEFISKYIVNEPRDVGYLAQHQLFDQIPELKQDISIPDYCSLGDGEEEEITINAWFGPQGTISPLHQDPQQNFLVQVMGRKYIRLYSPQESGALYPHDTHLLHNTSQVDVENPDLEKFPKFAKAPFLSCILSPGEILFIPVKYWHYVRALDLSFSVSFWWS

## O=C(O)c1cc(C(=O)O)c(NCCCCc2ccccc2)cn1 [Compound 20d, 5-((4-phenylbutyl)amino)pyridine-2,4-dicarboxylic acid]
Human JMJD5; [3]
  IC50: 0.4 ± 0.2 µM
PHD2
  IC50: 20.4 ± 0.8 µM
AspH
  IC50: 1.9 ± 0.2 µM
KDM4E [1]
  IC50: 3.6 ± 0.7 µM

## CC(Nc1cnc(C(=O)O)cc1C(=O)O)c1ccccc1 (centres unmarked) [Compound 20e]
Human JMJD5; [3]
  IC50: 17.5 ± 2.5 µM
Human JMJD5; isolated recombinant JMJD5, SPE-MS, approximate values, read-out: IC50 for JMJD5 inhibition
  IC50: ~17.5 µM
PHD2
  IC50: > 50 µM
AspH
  IC50: 5.9 ± 1.9 µM
KDM4E [1]
  IC50: 22.7 ± 0.4 µM

## O=C(O)c1cc(C(=O)O)c(NCC2CCCCC2)cn1 [Compound 20f]
PHD2
  IC50: > 50 µM
AspH
  IC50: 2.6 ± 0.6 µM
KDM4E [1]
  IC50: 3.2 ± 0.3 µM
RIOX2
  IC50: 34 ± 8.5 µM

## O=C(O)c1cc(C(=O)O)c(NCc2ccc(C(F)(F)F)cc2)cn1 [Compound 20g]
PHD2
  IC50: > 50 µM
AspH
  IC50: 1.2 ± 0.1 µM
KDM4E [1]
  IC50: 6.2 ± 1.1 µM

## O=C(O)c1ccnc(C(=O)O)c1Nc1ccccc1 [Compound 21]
Human JMJD5; [4]
  IC50: > 50 µM
Human JMJD5; [5]
  IC50: > 50 µM
KDM4E [2]
  IC50: 19 µM

## O=C(O)c1ccccc1Nc1c(C(=O)O)ccnc1C(=O)O [Compound 24]
Human JMJD5; [4]
  IC50: > 50 µM
Human JMJD5; [5]
  IC50: > 50 µM
KDM4E [2]
  IC50: 166 µM

## O=C(O)c1ccnc(C(=O)O)c1Nc1ccccc1F [Compound 25]
Human JMJD5; [4]
  IC50: 46.9 ± 4.6 µM
Human JMJD5; [5]
  IC50: 46.9 ± 4.6 µM

## Cc1ccccc1Nc1c(C(=O)O)ccnc1C(=O)O [Compound 26]
Human JMJD5; [4]
  IC50: > 50 µM
Human JMJD5; [5]
  IC50: > 50 µM
KDM4E [2]
  IC50: 41 µM

## COc1ccccc1Nc1c(C(=O)O)ccnc1C(=O)O [Compound 27]
Human JMJD5; [4]
  IC50: 29.6 ± 4.3 µM
Human JMJD5; [5]
  IC50: 29.6 ± 4.3 µM
KDM4E [2]
  IC50: 19 µM

## CSc1ccccc1Nc1c(C(=O)O)ccnc1C(=O)O [Compound 28]
Human JMJD5; [4]
  IC50: 41.5 ± 2.2 µM
Human JMJD5; [5]
  IC50: 41.5 ± 2.2 µM
KDM4E [2]
  IC50: 48 µM

## Nc1ccccc1Nc1c(C(=O)O)ccnc1C(=O)O [Compound 29]
Human JMJD5; [4]
  IC50: 39.6 µM
Human JMJD5; [5]
  IC50: 39.6 ± 11.2 µM

## CC(Nc1cnccc1C(=O)O)c1ccccc1 (centres unmarked) [Compound 30]
Human JMJD5; [4]
  IC50: > 50 µM
Human JMJD5; [5]
  IC50: > 50 µM

## O=C(O)c1ccnc(C(=O)O)c1NCCc1ccc(Cl)cc1 [Compound 31]
Human JMJD5; [4]
  IC50: 10.3 ± 3.1 µM
Human JMJD5; [5]
  IC50: 10.3 ± 3.1 µM

## O=C(O)c1ccncc1NCCc1ccc(Cl)cc1 [Compound 32]
Human JMJD5; [4]
  IC50: > 50 µM
Human JMJD5; [5]
  IC50: > 50 µM

## COC(=O)c1ccnc(C(=O)OC)c1 [dimethyl 2,4-PDCA, reference compound]
Human JMJD5; [4]
  IC50: > 50 µM
Human JMJD5; isolated recombinant JMJD5, SPE-MS
  JMJD5 inhibition (in words): does not inhibit isolated recombinant JMJD5
Human JMJD5; isolated recombinant JMJD5, SPE-MS, listed as dimethyl ester derivative of 1
  JMJD5 inhibition (in words): does not inhibit isolated recombinant JMJD5 efficiently
